Test results published in patent US6495525B1, “VLA-4 inhibitor: oMePUPA-V” (Biogen, Inc., priority 1998, dated 2002).
In brackets after ≈: the same amount, converted by molar mass.

What was measured:
Solubility = format: physicochemical
VLA-4 [1] = target: T1, VLA-4 (Mus musculus, UniProt P09055+Q00651); test: VCAM-Ig Competitive Binding Assay on mouse splenocytes; conditions: Mn+2
T1 construct: from tissue; host or cells: mouse spleen cells

VLA-4 [2] = target: VLA-4 (Homo sapiens, UniProt P05556+P13612); test: Competition / dissociation assay with 3H-known inhibitor on Jurkat cells; format: binding; set-up: endogenous in cells; host or cells: Jurkat (human T cell line); conditions: Mn+2-activated VLA-4
Method: Jurkat cells were maintained in RPMI-1640 medium plus 10% fetal bovine serum at 37° C. in a tissue culture incubator. For binding studies, the cells were pelleted by centrifugation, washed two times with TBS (50 mM Tris HCl, 150 mM NaCl, 0.1% bovine serum albumin, 2 mM glucose, 10 mM HEPES pH 7.4), suspended at approximately 2×10^6 cells/ml in TBS, and counted using a Neubauer hemocytometer. The cells were further diluted to 1.5×10^6/ml in the buffers indicated and subjected to the specific treatments defined for each experiment. The cells were then pelleted by centrifugation, resuspended in 100 μl of assay buffer, and transferred to a scintillation vial containing 2.9 ml of ScintiVerse II (Fisher Scientific). Cell-associated radioactivity was quantified by scintillation counting. Counts bound under these conditions measures integrin that is not occupied by the test compound and is therefore free to bind the ^3H-known inhibitor. […] Specific counts bound were calculated by subtracting non-specific counts from total counts bound.
A series of competition studies were performed to verify that oMePUPA-V and the known inhibitor compete for the same site on VLA-4. […] Third, Mn^+2-activated Jurkat cells were treated with saturating amounts of oMePUPA-V, and the rate at which the oMePUPA-V dissociated was measured. […]

gpIIbIIIa = target: T2, gpIIbIIIa (Homo sapiens, UniProt P05106+P08514); test: Platelet aggregation induced by ADP in platelet rich plasma; format: cell-based
T2 construct: from tissue; host or cells: platelet rich plasma
Method: Activity against gpIIbIIIa was assessed by means of standard platelet aggregometry using platelet rich plasma. ADP was used to initiate aggregation in the presence of plasma where Ca^+2 and Mg^+2 are the major divalent cations. GRGDSP @ 100 ug/mL was used as a positive control.

[3] = tested on: Ascaris suum-sensitive sheep; test: Single dose irritancy, airways resistance after aerosol in sheep; format: in vivo; conditions: single aerosol doses 0.01-3 mg
Method: FIG. 2: Sheep, naturally sensitive to Ascaris suum, were challenged with an aerosol administration of oMePUPA-V at the doses indicated or an aerosol of Ascaris suum. Changes in airways resistance were measured following aerosol challenge and peak specific lung resistance (cm H2O/sec) after challenge was compared to baseline values. *=p<0.05 compared to PBS control, one-way analysis of variance, followed by Dunnett's test for multiple comparison to a control group. Indicates a statistically significant increase in peak specific lung resistance compared to PBS control group.

T2 sequence (P08514 32-887 limits assumed): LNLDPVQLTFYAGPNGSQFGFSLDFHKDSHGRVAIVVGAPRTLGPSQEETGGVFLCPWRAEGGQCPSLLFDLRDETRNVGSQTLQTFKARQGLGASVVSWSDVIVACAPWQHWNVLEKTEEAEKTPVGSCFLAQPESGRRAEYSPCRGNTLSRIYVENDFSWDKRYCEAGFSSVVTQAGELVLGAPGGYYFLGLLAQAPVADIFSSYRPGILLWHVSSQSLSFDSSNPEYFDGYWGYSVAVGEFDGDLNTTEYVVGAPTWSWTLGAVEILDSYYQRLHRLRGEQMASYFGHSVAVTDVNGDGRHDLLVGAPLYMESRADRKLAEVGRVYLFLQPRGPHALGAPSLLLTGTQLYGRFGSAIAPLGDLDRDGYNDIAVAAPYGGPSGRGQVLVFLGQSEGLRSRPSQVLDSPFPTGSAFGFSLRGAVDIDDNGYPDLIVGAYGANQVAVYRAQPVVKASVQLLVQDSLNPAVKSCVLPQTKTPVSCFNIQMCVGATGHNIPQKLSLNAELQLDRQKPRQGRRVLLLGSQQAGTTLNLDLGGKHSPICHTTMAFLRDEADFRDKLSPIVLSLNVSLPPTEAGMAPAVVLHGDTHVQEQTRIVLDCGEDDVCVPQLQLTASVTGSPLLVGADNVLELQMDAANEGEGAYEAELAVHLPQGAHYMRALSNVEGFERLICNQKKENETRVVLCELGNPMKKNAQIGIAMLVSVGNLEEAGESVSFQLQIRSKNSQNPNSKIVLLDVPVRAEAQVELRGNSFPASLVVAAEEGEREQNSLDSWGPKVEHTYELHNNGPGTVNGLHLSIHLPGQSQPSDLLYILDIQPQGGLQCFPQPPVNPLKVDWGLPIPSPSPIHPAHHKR
T2 sequence (P08514 891-1039 partner limits assumed): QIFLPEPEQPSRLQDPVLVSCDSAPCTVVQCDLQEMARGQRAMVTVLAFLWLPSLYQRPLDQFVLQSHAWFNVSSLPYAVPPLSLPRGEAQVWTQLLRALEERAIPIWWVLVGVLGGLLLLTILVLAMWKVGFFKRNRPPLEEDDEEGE
T2 sequence (P05106 27-788): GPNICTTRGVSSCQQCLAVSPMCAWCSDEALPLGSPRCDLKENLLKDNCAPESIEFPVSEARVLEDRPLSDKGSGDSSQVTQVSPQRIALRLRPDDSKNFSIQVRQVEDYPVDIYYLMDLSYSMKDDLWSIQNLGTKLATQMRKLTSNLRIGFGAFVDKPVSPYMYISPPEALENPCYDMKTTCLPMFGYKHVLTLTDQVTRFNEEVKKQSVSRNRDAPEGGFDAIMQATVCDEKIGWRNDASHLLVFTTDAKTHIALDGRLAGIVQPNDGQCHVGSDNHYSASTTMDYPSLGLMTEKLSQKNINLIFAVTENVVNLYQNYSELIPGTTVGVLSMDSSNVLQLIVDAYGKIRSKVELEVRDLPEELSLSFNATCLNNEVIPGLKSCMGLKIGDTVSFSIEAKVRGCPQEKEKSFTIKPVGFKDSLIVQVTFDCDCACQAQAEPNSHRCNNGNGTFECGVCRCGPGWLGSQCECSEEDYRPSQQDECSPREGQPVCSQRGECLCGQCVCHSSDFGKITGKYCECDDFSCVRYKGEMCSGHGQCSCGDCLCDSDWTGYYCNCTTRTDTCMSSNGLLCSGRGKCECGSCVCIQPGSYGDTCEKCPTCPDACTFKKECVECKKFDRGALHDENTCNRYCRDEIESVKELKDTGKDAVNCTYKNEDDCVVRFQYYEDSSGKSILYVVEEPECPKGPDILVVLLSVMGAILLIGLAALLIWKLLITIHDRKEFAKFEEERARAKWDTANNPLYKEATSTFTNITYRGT
T1 sequence (Q00651 41-1039): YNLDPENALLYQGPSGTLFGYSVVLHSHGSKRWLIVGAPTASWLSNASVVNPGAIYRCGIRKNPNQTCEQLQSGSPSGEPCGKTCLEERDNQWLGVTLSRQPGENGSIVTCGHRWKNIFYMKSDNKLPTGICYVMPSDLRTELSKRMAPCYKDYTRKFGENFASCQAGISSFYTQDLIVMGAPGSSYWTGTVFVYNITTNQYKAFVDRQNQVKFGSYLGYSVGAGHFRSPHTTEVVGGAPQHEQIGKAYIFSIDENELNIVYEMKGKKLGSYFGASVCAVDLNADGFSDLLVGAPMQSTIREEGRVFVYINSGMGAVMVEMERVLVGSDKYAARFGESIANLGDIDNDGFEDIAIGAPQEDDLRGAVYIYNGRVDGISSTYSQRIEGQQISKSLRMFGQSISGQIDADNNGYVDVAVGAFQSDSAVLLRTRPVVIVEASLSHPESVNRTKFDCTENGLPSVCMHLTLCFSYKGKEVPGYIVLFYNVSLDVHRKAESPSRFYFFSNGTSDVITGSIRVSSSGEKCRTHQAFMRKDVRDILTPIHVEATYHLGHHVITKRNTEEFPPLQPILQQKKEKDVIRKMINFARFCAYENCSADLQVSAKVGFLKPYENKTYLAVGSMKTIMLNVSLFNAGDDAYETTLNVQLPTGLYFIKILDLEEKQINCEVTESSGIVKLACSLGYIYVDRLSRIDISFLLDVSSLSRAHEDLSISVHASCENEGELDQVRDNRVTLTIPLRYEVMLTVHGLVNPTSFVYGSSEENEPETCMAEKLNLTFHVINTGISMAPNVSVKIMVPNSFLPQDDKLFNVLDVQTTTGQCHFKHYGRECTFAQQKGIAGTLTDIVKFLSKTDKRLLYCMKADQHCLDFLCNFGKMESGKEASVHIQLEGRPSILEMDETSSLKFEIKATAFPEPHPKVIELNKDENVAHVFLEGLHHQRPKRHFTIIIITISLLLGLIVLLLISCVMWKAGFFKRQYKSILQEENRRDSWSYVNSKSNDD
T1 sequence (P09055 21-798): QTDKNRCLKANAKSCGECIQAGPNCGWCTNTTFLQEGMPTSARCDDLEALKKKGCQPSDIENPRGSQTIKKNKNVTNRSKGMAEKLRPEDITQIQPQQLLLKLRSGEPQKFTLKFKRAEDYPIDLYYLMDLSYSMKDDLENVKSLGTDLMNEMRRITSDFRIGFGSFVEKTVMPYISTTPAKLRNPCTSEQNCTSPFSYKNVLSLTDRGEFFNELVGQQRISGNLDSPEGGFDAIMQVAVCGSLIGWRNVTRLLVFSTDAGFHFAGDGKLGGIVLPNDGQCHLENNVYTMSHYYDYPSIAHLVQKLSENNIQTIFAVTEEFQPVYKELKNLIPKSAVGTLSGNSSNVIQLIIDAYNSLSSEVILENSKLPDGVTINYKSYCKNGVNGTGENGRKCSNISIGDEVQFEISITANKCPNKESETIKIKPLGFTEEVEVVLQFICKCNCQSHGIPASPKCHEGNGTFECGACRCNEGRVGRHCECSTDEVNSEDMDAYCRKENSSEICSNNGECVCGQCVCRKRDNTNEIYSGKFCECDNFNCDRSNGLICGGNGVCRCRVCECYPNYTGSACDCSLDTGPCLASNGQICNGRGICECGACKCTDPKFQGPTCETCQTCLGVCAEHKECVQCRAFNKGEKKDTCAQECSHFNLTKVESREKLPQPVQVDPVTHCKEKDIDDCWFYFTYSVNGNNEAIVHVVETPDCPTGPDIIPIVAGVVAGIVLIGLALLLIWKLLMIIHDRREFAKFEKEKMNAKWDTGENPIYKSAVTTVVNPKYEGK

Cc1ccccc1NC(=O)Nc1ccc(CC(=O)N2CCC[C@H]2C(=O)N[C@H](C)CC(=O)O)cc1 [oMePUPA-V]
solubility in DMSO (Solubility; DMSO): soluble | solubility (Solubility; aqueous medium): 120 µg/mL (≈ 257 µM) | IC50 (VLA-4 [1]): 4 ± 2 nM | concentration needed to compete 3H-known inhibitor binding, relative to cold known inhibitor (VLA-4 [2]): 10 fold | measurable activity against gpIIbIIIa (gpIIbIIIa): > 100 µM | inhibition, platelets (IIbIIIa) fibrinogen aggregation (gpIIbIIIa; @ 100 μM, Ca+2/Mg+2): no inhibition @ | inhibition of ADP-induced platelet aggregation (in words) (gpIIbIIIa; three doses 1, 10 and 100 μM): did not inhibit | irritant effect, change in airways resistance compared to baseline [3]: lack of change in airways resistance compared to baseline resistance
